Reference: patent US9181305B2, “Exendin-4 peptide analogues” (SANOFI, priority 2012, dated 2015)
*1 amine or outer side, *2 acyl side, *3 side chain or, on linkers, in order; H or OH if unused. Where a SMILES comes first, the peptide text is derived from it. Side-chain parts run from the residue outwards. [ ]: non-standard residue; d: D form. The star is where a group is joined. γGlu = O=C(O)[C@H](CCC(=O)[*:2])N[*:1]; Palmitoyl = CCCCCCCCCCCCCCCC(=O)*

Assays:
[1] = target: T1, human glucagon receptor (hGlucagon R) (Homo sapiens, UniProt P47871); experiment: cAMP response (HTRF) of HEK-293 cells stably expressing human glucagon receptor; assay type: cell-based; details: read-out: EC50 hGlucagonR
T1 construct: expressed in transfected cells; host or cells: HEK-293
Protocol: cAMP content of cells was determined using a kit from Cisbio Corp. (cat. no. 62AM4PEC) based on HTRF (Homogenous Time Resolved Fluorescence). For preparation, cells were split into T175 culture flasks and grown overnight to near confluency in medium (DMEM/10% FBS). Medium was then removed and cells washed with PBS lacking calcium and magnesium, followed by proteinase treatment with accutase (Sigma-Aldrich cat. no. A6964). Detached cells were washed and resuspended in assay buffer (1×HBSS; 20 mM HEPES, 0.1% BSA, 2 mM IBMX) and cellular density determined. […] For measurement, 25 μl of test compound in assay buffer was added to the wells, followed by incubation for 30 minutes at room temperature.

[2] = target: T2, human GLP-1 receptor (hGLP-1 R) (Homo sapiens, UniProt P43220); experiment: cAMP response (HTRF) of HEK-293 cells stably expressing human GLP-1 receptor; assay type: cell-based; details: HEK-293 cells expressing human GLP-1 receptor, cAMP formation
T2 construct: expressed in transfected cells; host or cells: HEK-293
Outline: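 Detached HEK-293 cells stably expressing the receptor were suspended in HBSS with 20 mM HEPES, 0.1% BSA and 2 mM IBMX. Test compound was added for 30 min at room temperature, and cellular cAMP was quantified by HTRF.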

physchem = assay type: physicochemical
Protocol: Prior to the testing of solubility and stability of a peptide batch, its content was determined. Therefore, two parameters were investigated, its purity (HPLC-UV) and the amount of salt load of the batch (ion chromatography). Since synthesized peptides contain primarily trifluoracetate anions, only anion chromatography was performed. The content was then calculated based on the assumption that peptide-related impurities are detected at the same UV-absorption rate as the target peptide, as well as that cations are not present in the sample.
Therefore, solutions from solid samples were prepared in different buffer systems with a concentration of 1.0 mg/mL compound based on the previously determined content. HPLC-UV was performed after 2 h of gentle agitation from the supernatant, which was obtained by 20 min of centrifugation at 4000 rpm. […] This analysis also served as t0 for the stability testing.
Instrument: Agilent 1100, column: X-Bridge C18 3.5 μm 2.1×150 mm (Waters), eluent: A: H20+500 ppm TFA/B: Methanol, flow: 0.55 ml/min, gradient: 0-5 min: 10-60% B; 5-15 min: 60-99% B; detection: 214 nm.

T1 sequence (P47871 26-477): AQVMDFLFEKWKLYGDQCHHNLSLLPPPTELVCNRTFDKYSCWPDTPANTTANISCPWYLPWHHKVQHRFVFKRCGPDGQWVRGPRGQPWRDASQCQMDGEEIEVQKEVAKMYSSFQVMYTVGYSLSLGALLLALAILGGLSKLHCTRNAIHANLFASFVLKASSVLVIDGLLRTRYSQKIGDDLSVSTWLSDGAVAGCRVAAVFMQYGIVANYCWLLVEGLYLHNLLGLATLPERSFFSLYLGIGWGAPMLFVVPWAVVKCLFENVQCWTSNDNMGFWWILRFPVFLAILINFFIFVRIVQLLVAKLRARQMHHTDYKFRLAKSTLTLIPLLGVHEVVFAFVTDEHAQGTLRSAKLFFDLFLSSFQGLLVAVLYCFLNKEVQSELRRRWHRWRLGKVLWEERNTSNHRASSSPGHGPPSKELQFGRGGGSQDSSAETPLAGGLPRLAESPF
T2 sequence (P43220 24-463): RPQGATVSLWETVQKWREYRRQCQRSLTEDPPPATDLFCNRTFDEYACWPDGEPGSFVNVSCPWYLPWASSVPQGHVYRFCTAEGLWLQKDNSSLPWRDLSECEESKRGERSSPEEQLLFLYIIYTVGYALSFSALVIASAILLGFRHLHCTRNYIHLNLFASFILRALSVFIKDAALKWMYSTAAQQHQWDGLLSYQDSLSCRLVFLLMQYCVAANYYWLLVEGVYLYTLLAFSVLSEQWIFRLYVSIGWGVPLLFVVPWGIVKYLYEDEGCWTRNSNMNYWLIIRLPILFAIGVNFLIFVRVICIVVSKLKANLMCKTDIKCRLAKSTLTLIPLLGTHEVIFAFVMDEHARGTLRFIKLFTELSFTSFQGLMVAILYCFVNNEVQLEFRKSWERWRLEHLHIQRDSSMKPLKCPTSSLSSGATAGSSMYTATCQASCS

| Structure (SMILES) | EC50 [1] [pM] | EC50 [2] [pM] | solubility at 2 h (physchem; pH 4.5) [µg/mL] | solubility at 2 h (physchem; pH 7.4) [µg/mL] |
| --- | --- | --- | --- | --- |
| CC[C@H](C)[C@H](NC(=O)[C@H](Cc1ccccc1)NC(=O)[C@H](CC(=O)O)NC(=O)[C@H](CCC(N)=O)NC(=O)[C@H](C)NC(=O)[C@H](CCCNC(=N)N)NC(=O)[C@H](CCCNC(=N)N)NC(=O)[C@H](CCC(=O)O)NC(=O)[C@H](CC(=O)O)NC(=O)[C@H](CCSC)NC(=O)[C@H](CCC(N)=O)NC(=O)[C@H](CCCCN)NC(=O)[C@H](CO)NC(=O)[C@H](CC(C)C)NC(=O)[C@H](CC(=O)O)NC(=O)[C@H](CO)NC(=O)[C@@H](NC(=O)[C@H](Cc1ccccc1)NC(=O)[C@@H](NC(=O)CNC(=O)[C@H](CCC(N)=O)NC(=O)[C@H](CO)NC(=O)[C@@H](N)Cc1c[nH]cn1)[C@@H](C)O)[C@@H](C)O)C(=O)N[C@@H](CCC(=O)O)C(=O)N[C@@H](Cc1c[nH]c2ccccc12)C(=O)N[C@@H](CC(C)C)C(=O)N[C@@H](CCCCN)C(=O)N[C@@H](CC(N)=O)C(=O)NCC(=O)NCC(=O)N1CCC[C@H]1C(=O)N[C@@H](CO)C(=O)N[C@@H](CO)C(=O)NCC(=O)N[C@@H](C)C(=O)N1CCC[C@H]1C(=O)N1CCC[C@H]1C(=O)N1CCC[C@H]1C(=O)N[C@@H](CO)C(N)=O [(5)] (H-HSQGTFTSDLSKQMDERRAQDFIEWLKNGGPSSGAPPPS-NH2) | 67 |  |  |  |
| CCCCCCCCCCCCCCCC(=O)N[C@@H](CCC(=O)NCCCC[C@H](NC(=O)[C@H](CO)NC(=O)[C@@H]1CCCN1C(=O)[C@@H]1CCCN1C(=O)[C@@H]1CCCN1C(=O)[C@H](C)NC(=O)CNC(=O)[C@H](CO)NC(=O)[C@H](CO)NC(=O)[C@@H]1CCCN1C(=O)CNC(=O)[C@@H](NC(=O)[C@H](CC(N)=O)NC(=O)[C@H](CCCCN)NC(=O)[C@H](CC(C)C)NC(=O)[C@H](Cc1c[nH]c2ccccc12)NC(=O)[C@H](CCC(=O)O)NC(=O)[C@@H](NC(=O)[C@H](Cc1ccccc1)NC(=O)[C@H](CC(=O)O)NC(=O)[C@H](CCC(N)=O)NC(=O)[C@H](C)NC(=O)[C@H](CCCNC(=N)N)NC(=O)[C@H](CCCNC(=N)N)NC(=O)[C@H](CO)NC(=O)[C@H](CC(=O)O)NC(=O)[C@H](CCSC)NC(=O)[C@H](CCC(N)=O)NC(=O)[C@H](CCCCN)NC(=O)[C@H](CO)NC(=O)[C@H](CC(C)C)NC(=O)[C@H](CC(=O)O)NC(=O)[C@H](CO)NC(=O)[C@@H](NC(=O)[C@H](Cc1ccccc1)NC(=O)[C@@H](NC(=O)CNC(=O)[C@H](CCC(N)=O)NC(=O)[C@@H](CO)NC(=O)[C@@H](N)Cc1c[nH]cn1)[C@@H](C)O)[C@@H](C)O)[C@@H](C)CC)[C@@H](C)O)C(N)=O)C(=O)O [(71)] | 1.9 |  |  |  |
| CCCCCCCCCCCCCCCC(=O)N[C@@H](CCC(=O)NCCCC[C@H](NC(=O)[C@H](CO)NC(=O)[C@@H]1CCCN1C(=O)[C@@H]1CCCN1C(=O)[C@@H]1CCCN1C(=O)[C@H](C)NC(=O)CNC(=O)[C@H](CO)NC(=O)[C@H](CO)NC(=O)[C@@H]1CCCN1C(=O)CNC(=O)CNC(=O)[C@H](CO)NC(=O)[C@H](CCCCN)NC(=O)[C@H](CC(C)C)NC(=O)[C@H](Cc1c[nH]c2ccccc12)NC(=O)[C@H](CCC(=O)O)NC(=O)[C@@H](NC(=O)[C@H](Cc1ccccc1)NC(=O)[C@H](CC(=O)O)NC(=O)[C@H](CCC(N)=O)NC(=O)[C@H](C)NC(=O)[C@H](CCCNC(=N)N)NC(=O)[C@H](CCCNC(=N)N)NC(=O)[C@H](CO)NC(=O)[C@H](CCC(=O)O)NC(=O)[C@H](CCSC)NC(=O)[C@H](CCC(N)=O)NC(=O)[C@H](CCCCN)NC(=O)[C@H](CO)NC(=O)[C@H](CC(C)C)NC(=O)[C@H](CC(=O)O)NC(=O)[C@H](CO)NC(=O)[C@@H](NC(=O)[C@H](Cc1ccccc1)NC(=O)[C@@H](NC(=O)CNC(=O)[C@H](CCC(N)=O)NC(=O)[C@@H](CO)NC(=O)[C@@H](N)Cc1c[nH]cn1)[C@@H](C)O)[C@@H](C)O)[C@@H](C)CC)C(N)=O)C(=O)O [(78)] (H-H[dS]QGTFTSDLSKQMESRRAQDFIEWLKSGGPSSGAPPPSK([γGlu-Palmitoyl])-NH2) |  | 4.2 | > 1000 | > 1000 |
| CCCCCCCCCCCCCCCC(=O)N[C@@H](CCC(=O)NCCCC[C@H](NC(=O)[C@H](CO)NC(=O)[C@@H]1CCCN1C(=O)[C@@H]1CCCN1C(=O)[C@@H]1CCCN1C(=O)[C@H](C)NC(=O)CNC(=O)[C@H](CO)NC(=O)[C@H](CO)NC(=O)[C@@H]1CCCN1C(=O)CNC(=O)CNC(=O)[C@H](CCCNC(=N)N)NC(=O)[C@H](CCCCN)NC(=O)[C@H](CC(C)C)NC(=O)[C@H](Cc1c[nH]c2ccccc12)NC(=O)[C@H](CCC(=O)O)NC(=O)[C@@H](NC(=O)[C@H](Cc1ccccc1)NC(=O)[C@H](CC(=O)O)NC(=O)[C@H](CCC(N)=O)NC(=O)[C@H](C)NC(=O)[C@H](CCCNC(=N)N)NC(=O)[C@H](CCCNC(=N)N)NC(=O)[C@H](CO)NC(=O)[C@H](CCC(=O)O)NC(=O)[C@H](CCSC)NC(=O)[C@H](CCC(N)=O)NC(=O)[C@H](CCCCN)NC(=O)[C@H](CO)NC(=O)[C@H](CC(C)C)NC(=O)[C@H](CC(=O)O)NC(=O)[C@H](CO)NC(=O)[C@@H](NC(=O)[C@H](Cc1ccccc1)NC(=O)[C@@H](NC(=O)CNC(=O)[C@H](CCC(N)=O)NC(=O)[C@@H](CO)NC(=O)[C@@H](N)Cc1c[nH]cn1)[C@@H](C)O)[C@@H](C)O)[C@@H](C)CC)C(N)=O)C(=O)O [(75)] (H-H[dS]QGTFTSDLSKQMESRRAQDFIEWLKRGGPSSGAPPPSK([γGlu-Palmitoyl])-NH2) |  | 4.6 | > 1000 | > 1000 |
| CCCCCCCCCCCCCCCC(=O)N[C@@H](CCC(=O)NCCCC[C@H](NC(=O)[C@H](CO)NC(=O)[C@@H]1CCCN1C(=O)[C@@H]1CCCN1C(=O)[C@@H]1CCCN1C(=O)[C@H](C)NC(=O)CNC(=O)[C@H](CO)NC(=O)[C@H](CO)NC(=O)[C@@H]1CCCN1C(=O)CNC(=O)[C@H](C)NC(=O)[C@H](CC(N)=O)NC(=O)[C@H](CCCCN)NC(=O)[C@H](CC(C)C)NC(=O)[C@H](Cc1c[nH]c2ccccc12)NC(=O)[C@H](CCC(=O)O)NC(=O)[C@@H](NC(=O)[C@H](Cc1ccccc1)NC(=O)[C@H](CC(=O)O)NC(=O)[C@H](CCC(N)=O)NC(=O)[C@H](C)NC(=O)[C@H](CCCNC(=N)N)NC(=O)[C@H](CCCNC(=N)N)NC(=O)[C@H](CO)NC(=O)[C@H](CCC(=O)O)NC(=O)[C@H](CCSC)NC(=O)[C@H](CCC(N)=O)NC(=O)[C@H](CCCCN)NC(=O)[C@H](CO)NC(=O)[C@H](CC(C)C)NC(=O)[C@H](CC(=O)O)NC(=O)[C@H](CO)NC(=O)[C@@H](NC(=O)[C@H](Cc1ccccc1)NC(=O)[C@@H](NC(=O)CNC(=O)[C@H](CCC(N)=O)NC(=O)[C@@H](CO)NC(=O)[C@@H](N)Cc1c[nH]cn1)[C@@H](C)O)[C@@H](C)O)[C@@H](C)CC)C(N)=O)C(=O)O [(64)] (H-H[dS]QGTFTSDLSKQMESRRAQDFIEWLKNAGPSSGAPPPSK([γGlu-Palmitoyl])-NH2) | 67 |  |  |  |
